For one data set, the system named is HiPS-ELC-TFs. Put plainly: TEER of HiPS-ELC-TFs (tight junction function). Type of data set: cell-based, human. As to conditions: under action of C10 (tight junction opener); without C10 about 430; FIG. 18A. The source says:
The tight junction function was confirmed by measuring TEER.

For data set [1], the system named is CYP3A4. The source says:
(§1) As comparative cells, Caco-2 cells and LS180 cells were similarly investigated.

The subject of a further data set is ANPEP. As to the kind of experiment: ANPEP expression by quantitative real-time RT-PCR in cells differentiating from human iPS cells to enterocyte-like cells. As to conditions: compound added with BIO and DAPT, 5 days culture; versus control without the compounds; FIG. 2B. The data set is classed as cell-based. Here is the method: (§2) The definitive endoderm cells generated from the human iPS cell line (Tic) by the method described in Example 1 above were further cultured for 15 days using the medium 3. During a period from day 4 to day 19 after the initiation of differentiation induction, BIO (5 μM) and DAPT (10 μM) were added to the culture system. Simultaneously with the addition of the BIO and the DAPT, the cells were further cultured for 5 days using the medium 3 supplemented with any one of phorbol-myristate-acetate (PMA), transforming growth factor β1 (TGEβ1), Wortmannin, Noggin, SB431542, Follistatin, EGF, R-spondin1, Pentagastrin, or Wnt3a (FIG. 2A and FIG. 3A).
(§3) With regard to the measurement of the enterocyte markers ANPEP and VILLIN, each of the enterocyte markers was measured by a quantitative real-time RT-PCR method using SYBR Green gene expression assays (APPLIED BIOSYSTEMS). […] Thus, high expressions of ANPEP and VILLIN were found when the cells were cultured in the system containing SB431542, EGF, or Wnt3a.
The quantitative real-time RT-PCR was performed by the following method. With the use of ISOGEN (NIPPON GENE), total RNA was collected from the enterocyte-like cells obtained by differentiation induction from the human iPS cells. Each total RNA was treated with RNase-free DNaseI (NEW ENGLAND BIOLABS), and then subjected to a reverse transcription reaction using […] VILO cDNA Synthesis Kit (INVITROGEN) to synthesize complementary DNA (cDNA). As a positive control, the total RNA (CLONTECH, BIOCHAIN four lots in total) of a human adult small intestine (human adult intestine: hereinafter sometimes referred to as “AI”) tissue to be used was similarly subjected to cDNA synthesis. A quantitative real-time RT-PCR method using SYBR Green gene expression assays (APPLIED BIOSYSTEMS) was performed, and quantification was performed with STEPONEPLUS real-time PCR System (APPLIED BIOSYSTEMS).
For orientation: Real-time PCR tracks product formation cycle by cycle.

In another data set the test system is VILLIN. Put plainly: VILLIN expression by quantitative real-time RT-PCR in cells differentiating from human iPS cells to enterocyte-like cells. The data set is classed as cell-based. As to conditions: compound added with BIO and DAPT, 5 days culture; versus control without the compounds; FIG. 3B. Here is the method:
as §2, §3
The quantitative real-time RT-PCR was performed by the following method. […] A quantitative real-time RT-PCR method using SYBR Green gene expression assays (APPLIED BIOSYSTEMS) was performed, and quantification was performed with STEPONEPLUS real-time PCR System (APPLIED BIOSYSTEMS).

Data set [2] has as its system CYP3A4. Here is the method:
As control cells, Caco-2 cells were similarly subjected to measurement. The expression level of the gene was measured by a real-time RT-PCR method.
as §1
The source holds these as a separate data set.

Turning to `CCCCCCCCCC(=O)O` [C10, capric acid], the “TEER value of the HiPS-ELC-TFs” value in the data set on HiPS-ELC-TFs was ~0 Ω·cm^2. As to `CCC1(c2ccccc2)C(=O)NC(=O)NC1=O` [PB, phenobarbital], the CYP3A4 expression induction result in the data set with CYP3A4 [1] was “significant expression induction”. As to `CCCCCCCCCCCCCC(=O)O[C@@H]1[C@@H](C)[C@@]2(O)[C@@H](C=C(CO)C[C@]3(O)C(=O)C(C)=C[C@@H]23)[C@@H]2C(C)(C)[C@]12OC(C)=O` [PMA, phorbol-myristate-acetate], the “expression of ANPEP” value with ANPEP was “high value”.

With `NC(=O)c1ccc(-c2nc(-c3ccc4c(c3)OCO4)c(-c3ccccn3)[nH]2)cc1` [SB431542], in the data set with ANPEP, the “expression of ANPEP” value is listed as “high value”. In the data set with VILLIN, the “expression of VILLIN” value is “high value”. For `C=C1CC[C@H](O)C/C1=C/C=C1\CCC[C@]2(C)[C@@H]([C@H](C)CCCC(C)C)CC[C@@H]12` [VD3, vitamin D3], the “CYP3A4 gene expression level increase as compared to DMSO action group” value in the data set on CYP3A4 gene was “about 100 fold”. The “CYP3A4 protein expression level” value in the data set with CYP3A4 protein is given as “increased”. In addition, the CYP3A4 expression induction result in the data set with CYP3A4 [1] is on record as “significant expression induction”. The CYP3A4 induction result in the data set on CYP3A4 [2] is given as “confirmed”.

For epidermal growth factor [EGF], in the data set with ANPEP, the “expression of ANPEP” value was “high value”. Moreover, the “expression of VILLIN” value in the data set on VILLIN is given as “high value”.

The values above are taken from US10889805B2, “Intestinal epithelioid cells” (National Institutes of Biomedical Innovation, Health and …, priority 2015, dated 2021).
